From patent US12661369B2, “Muscular atrophy inhibitor and method for inhibiting muscular atrophy” (YAMASA CORPORATION, priority 2020, dated 2026)
“Also recorded” adds a separate entry of the source.

Legend:
Assay type in all cases: cell-based, Mouse
[1] = tested on: C2C12 cells differentiated into myotube cells; assay: Dexamethasone-induced myotube atrophy in C2C12 cells, myotube cell diameter (Example 1-2, also used for Examples 2 and 3)
Protocol: (§1) Mouse myoblast cell line C2C12 cells (RIKEN BRC, RCB0987) were suspended in growth medium (Dulbecco's modified Eagle's Medium supplemented with 10% FBS, 100 units/ml of penicillin, 100 μg/ml of streptomycin), seeded in 24-well plates, and incubated in a 37° C., 5% CO2 incubator until the cell density reached 70-90%.
The growth medium was removed, and exchanged to a differentiation induction medium (Dulbecco's modified Eagle's Medium supplemented with 2% adult bovine serum, 100 units/ml of penicillin, 100 μg/ml of streptomycin). The cells were cultured for 4 days while exchanging the medium once every 2 days and differentiated into myotube cells. The medium was removed and exchanged to the following media: • (1) Differentiation induction medium containing no dexamethasone [Dex (−)]; • (2) Differentiation induction medium containing 100 μM dexamethasone [Dex (+)]; • (3) Differentiation induction medium containing 100 μM dexamethasone and a certain amount of disodium cytidylate [Dex (+), a certain amount of CMP]; • (4) Differentiation induction medium containing 100 μM dexamethasone and a certain amount of cytidine [Dex (+), a certain amount of cytidine (which may be abbreviated as “Cyd”)]; • (5) Differentiation induction medium containing 100 μM dexamethasone and a certain amount of disodium uridylate [Dex (+), certain amount of UMP]; and • (6) Differentiation induction medium containing 100 μM dexamethasone and a certain amount of uridine [Dex (+), certain amount of uridine].
After culturing the cells for 3 days, five positions near the center of the wells were photographed at magnifications of 100. Using ImageJ image analysis software, the diameters of 10 myotube cells per a photograph were measured in the order from the myotube cell having the largest diameter, and an average of 50 cells was determined to be the diameter of the myotube cell in each well. Statistical analysis was performed by t-test or Dunnett's multiple comparison test using the differentiation induction medium treatment group supplemented only with 100 μM dexamethasone as a control. The threshold for statistical significance was set to 5%.
Cytidylic acid and uridylic were added to the medium at the concentrations shown in FIG. 7 so that the total concentration of cytidylic acid and uridylic acid was 1000 μM.
In Example 2, the total concentration of cytidylic acid/uridylic acid added to the medium was adjusted to 1000 μM and a ratio of the cytidylic acid/uridylic acid was varied.
Similarly, the effect of the combination of cytidine and uridine were also evaluated.

Atrogin-1 = Atrogin-1 mRNA expression in dexamethasone-treated C2C12 myotube cells (Example 4); conditions: 48 hours pretreatment, then 1 μM dexamethasone plus test substance 24 hours, corrected by β-actin
Protocol: (§2) Mouse myoblast cell line C2C12 cells were suspended in growth medium, seeded in 24-well plates, and incubated in a 37° C., 5% C02 incubator until the cell density reached 70-90%. The growth medium was removed, and exchanged to a differentiation induction medium. The cells were cultured for 6 days while exchanging the medium once every 2 days and differentiated into myotube cells. The medium was removed and exchanged to a differentiation induction medium or a differentiation induction medium containing a test substance. After 48 hours, the medium was removed and replaced with a differentiation induction medium, a differentiation induction medium supplemented only with 1 μM dexamethasone, or a medium supplemented with 1 μM dexamethasone and test substances (a certain amount of UMP (disodium uridylate), a certain amount of Urd (uridine), and […]).
(§3) After 24 hours, the medium was removed and total RNA was extracted from the cells using RNeasy Mini kit (QIAGEN) or NucleoSpin RNA (Takara Bio).
(§4) Using the total RNA as a template, a reverse transcription reaction solution was prepared using the ReverTra Ace(R) qPCR RT Kit (Toyobo). […] Analysis was performed by relative quantification, and mRNA expression levels were corrected using the β-actin mRNA expression level as an endogenous control. […]

MuRF1 = MuRF1 mRNA expression in dexamethasone-treated C2C12 myotube cells (Example 4); conditions: 48 hours pretreatment, then 1 μM dexamethasone plus test substance 24 hours, corrected by β-actin
Protocol: as §2, §3, §4

[2] = tested on: C2C12 cells differentiated into myotube cells; assay: Dexamethasone-induced myotube atrophy in C2C12 cells, myotube cell diameter (Example 1-1); conditions: 100 μM dexamethasone plus 2 mM or 5 mM disodium uridylate, 48 hours, vs Dex (+), UMP (−)
Protocol: as §1, with “C02” for “CO2”
The growth medium was removed, and exchanged to a differentiation induction medium (Dulbecco's modified Eagle's Medium supplemented with 2% adult bovine serum, 100 units/ml of penicillin, 100 μg/ml of streptomycin). The cells were cultured for 4 days while exchanging the medium once every 2 days and differentiated into myotube cells. […]
After 24 hours, the medium was changed again. […] Using ImageJ image analysis software, the diameters of 10 myotube cells per a photograph were measured in the order from the myotube cell having the largest diameter, and an average of 50 cells was determined to be the diameter of the myotube cell in each well. […]

[3] = Example 1-2, 100 μM dexamethasone plus a certain amount of test substance, 3 days, vs Dex (+) only
[4] = Example 3, 100 μM dexamethasone plus single test substance

SMILES: O=c1ccn([C@@H]2O[C@H](CO)[C@@H](O)[C@H]2O)c(=O)[nH]1 [uridine]
- myotube cell diameter [1, 3]: significantly increased; also recorded: myotube cell atrophy inhibiting effect
- myotube cell diameter [1, 4]: significantly increased
- mRNA expression level of Atrogin-1 (Atrogin-1): decreased; also recorded: excellent inhibiting effect
- mRNA expression level of MuRF1 (MuRF1): decreased; also recorded: excellent inhibiting effect

SMILES: Nc1ccn([C@@H]2O[C@H](COP(=O)(O)O)[C@@H](O)[C@H]2O)c(=O)n1 [cytidylic acid]
- myotube cell diameter [1, 3]: significantly increased; also recorded: myotube cell atrophy inhibiting effect
- myotube cell diameter [1, 4]: significantly increased

SMILES: Nc1ccn([C@@H]2O[C@H](CO)[C@@H](O)[C@H]2O)c(=O)n1 [cytidine]
- myotube cell diameter [1, 3]: significantly increased; also recorded: myotube cell atrophy inhibiting effect
- myotube cell diameter [1, 4]: significantly increased

SMILES: O=c1ccn([C@@H]2O[C@H](COP(=O)(O)O)[C@@H](O)[C@H]2O)c(=O)[nH]1 [uridylic acid]
- myotube cell diameter [2]: the reduction was suppressed
- myotube cell diameter [1, 3]: significantly increased; also recorded: myotube cell atrophy inhibiting effect
- myotube cell diameter [1, 4]: significantly increased
- mRNA expression level of Atrogin-1 (Atrogin-1): decreased; also recorded: excellent inhibiting effect
- mRNA expression level of MuRF1 (MuRF1): decreased; also recorded: excellent inhibiting effect
